Reference: ChEMBL document CHEMBL1138574, “Regioselective synthesis and stereochemical structure of anti-tumor active dispiro[3H-indole-3,2'-pyrrolidine-3',3''-piperidine]-2(1H),4''-diones” (2009)

Each molecule was assayed on A498 (assay: Antitumor activity against human A498 cells assessed as cell growth at 10 uM after 48 hrs by sulforhodamine B assay). Conditions: A498, 48 h, read-out: Activity.
Type: functional

Q: With `CN1C/C(=C\c2ccc(Cl)cc2)C(=O)[C@]2(C1)[C@@H](c1ccc(Cl)cc1)CN(C)[C@@]21C(=O)N(C)c2ccccc21` as the molecule, how does the growth at 10 µM read?
A: The growth at 10 µM was 69.4%.

These molecules were tested on RXF 393 (assay: Antitumor activity against human RXF393 cells assessed as cell growth at 10 uM after 48 hrs by sulforhodamine B assay). Conditions: RXF 393, 48 h, read-out: Activity.
Type: functional

Q: With `CN1C/C(=C\c2ccc(Cl)cc2)C(=O)[C@]2(C1)[C@@H](c1ccc(Cl)cc1)CN(C)[C@@]21C(=O)N(C)c2ccccc21` as the molecule, how does the growth at 10 µM read?
A: Its growth at 10 µM is 67.2%.

The molecules below were run on SN12C (assay: Antitumor activity against human SN12C cells assessed as cell growth at 10 uM after 48 hrs by sulforhodamine B assay). Conditions: read-out: Activity.
Type: functional

Q: Which growth at 10 µM does the source give for `CN1C/C(=C\c2ccc(Cl)cc2)C(=O)[C@]2(C1)[C@@H](c1ccc(Cl)cc1)CN(C)[C@@]21C(=O)N(C)c2ccccc21` here?
A: The growth at 10 µM was 62.9%.

These molecules were tested on TK-10 (assay: Antitumor activity against human TK10 cells assessed as cell growth at 10 uM after 48 hrs by sulforhodamine B assay). Conditions: TK-10, 48 h, read-out: Activity.
Type: functional

Q: Which growth at 10 µM does the source give for `CN1C/C(=C\c2ccc(Cl)cc2)C(=O)[C@]2(C1)[C@@H](c1ccc(Cl)cc1)CN(C)[C@@]21C(=O)N(C)c2ccccc21` here?
A: Its growth at 10 µM is 81.8%.

These molecules were tested on UO-31 (assay: Antitumor activity against human UO31 cells assessed as cell growth at 10 uM after 48 hrs by sulforhodamine B assay). Conditions: UO-31, 48 h, read-out: Activity.
Type: functional

Q: `CN1C/C(=C\c2ccc(Cl)cc2)C(=O)[C@]2(C1)[C@@H](c1ccc(Cl)cc1)CN(C)[C@@]21C(=O)N(C)c2ccccc21` was tested. Which growth at 10 µM did it give?
A: Its growth at 10 µM is 56.6%.

The molecules below were run on LOX IMVI (assay: Antitumor activity against human LOXIMVI cells assessed as cell growth at 10 uM after 48 hrs by sulforhodamine B assay). Conditions: read-out: Activity.
Type: functional

Q: Which growth at 10 µM does the source give for `CN1C/C(=C\c2ccc(Cl)cc2)C(=O)[C@]2(C1)[C@@H](c1ccc(Cl)cc1)CN(C)[C@@]21C(=O)N(C)c2ccccc21` here?
A: Its growth at 10 µM is 73.9%.

Each molecule was assayed on M14 (assay: Antitumor activity against human M14 cells assessed as cell growth at 10 uM after 48 hrs by sulforhodamine B assay). Conditions: M14, 48 h, read-out: Activity.
Type: functional

Q: For `CN1C/C(=C\c2ccc(Cl)cc2)C(=O)[C@]2(C1)[C@@H](c1ccc(Cl)cc1)CN(C)[C@@]21C(=O)N(C)c2ccccc21`, which growth at 10 µM is on record?
A: Its growth at 10 µM is 77.8%.

These molecules were tested on SK-MEL-28 (assay: Antitumor activity against human SK-MEL-28 cells assessed as cell growth at 10 uM after 48 hrs by sulforhodamine B assay). Conditions: SK-MEL-28, 48 h, read-out: Activity.
Type: functional

Q: Which growth at 10 µM does the source give for `CN1C/C(=C\c2ccc(Cl)cc2)C(=O)[C@]2(C1)[C@@H](c1ccc(Cl)cc1)CN(C)[C@@]21C(=O)N(C)c2ccccc21` here?
A: The growth at 10 µM was 104%.

Each molecule was assayed on UACC-257 (assay: Antitumor activity against human UACC257 cells assessed as cell growth at 10 uM after 48 hrs by sulforhodamine B assay). Conditions: UACC-257, 48 h, read-out: Activity.
Type: functional

Q: Which growth at 10 µM does the source give for `CN1C/C(=C\c2ccc(Cl)cc2)C(=O)[C@]2(C1)[C@@H](c1ccc(Cl)cc1)CN(C)[C@@]21C(=O)N(C)c2ccccc21` here?
A: The growth at 10 µM was 72%.

The molecules below were run on UACC-62 (assay: Antitumor activity against human UACC62 cells assessed as cell growth at 10 uM after 48 hrs by sulforhodamine B assay). Conditions: UACC-62, 48 h, read-out: Activity.
Type: functional

Q: Which growth at 10 µM does the source give for `CN1C/C(=C\c2ccc(Cl)cc2)C(=O)[C@]2(C1)[C@@H](c1ccc(Cl)cc1)CN(C)[C@@]21C(=O)N(C)c2ccccc21` here?
A: The growth at 10 µM was 59.9%.

Each molecule was assayed on PC-3 (assay: Antitumor activity against human PC3 cells assessed as cell growth at 10 uM after 48 hrs by sulforhodamine B assay). Conditions: PC-3, 48 h, read-out: Activity.
Type: functional

Q: Which growth at 10 µM does the source give for `CN1C/C(=C\c2ccc(Cl)cc2)C(=O)[C@]2(C1)[C@@H](c1ccc(Cl)cc1)CN(C)[C@@]21C(=O)N(C)c2ccccc21` here?
A: The growth at 10 µM was 32.5%.

The molecules below were run on SF-268 (assay: Antitumor activity against human SF268 cells assessed as cell growth at 10 uM after 48 hrs by sulforhodamine B assay). Conditions: SF-268, 48 h, read-out: Activity.
Type: functional

Q: `CN1C/C(=C\c2ccc(Cl)cc2)C(=O)[C@]2(C1)[C@@H](c1ccc(Cl)cc1)CN(C)[C@@]21C(=O)N(C)c2ccccc21` was tested. Which growth at 10 µM did it give?
A: The growth at 10 µM was 83.6%.

The molecules below were run on SF-539 (assay: Antitumor activity against human SF539 cells assessed as cell growth at 10 uM after 48 hrs by sulforhodamine B assay). Conditions: SF-539, 48 h, read-out: Activity.
Type: functional

Q: How did the growth at 10 µM turn out when `CN1C/C(=C\c2ccc(Cl)cc2)C(=O)[C@]2(C1)[C@@H](c1ccc(Cl)cc1)CN(C)[C@@]21C(=O)N(C)c2ccccc21` was run?
A: The growth at 10 µM was 78.1%.

These molecules were tested on SNB-19 (assay: Antitumor activity against human SNB19 cells assessed as cell growth at 10 uM after 48 hrs by sulforhodamine B assay). Conditions: SNB-19, 48 h, read-out: Activity.
Type: functional

Q: For `CN1C/C(=C\c2ccc(Cl)cc2)C(=O)[C@]2(C1)[C@@H](c1ccc(Cl)cc1)CN(C)[C@@]21C(=O)N(C)c2ccccc21`, which growth at 10 µM is on record?
A: The growth at 10 µM was 77.3%.

The molecules below were run on SNB-75 (assay: Antitumor activity against human SNB75 cells assessed as cell growth at 10 uM after 48 hrs by sulforhodamine B assay). Conditions: SNB-75, 48 h, read-out: Activity.
Type: functional

Q: With `CN1C/C(=C\c2ccc(Cl)cc2)C(=O)[C@]2(C1)[C@@H](c1ccc(Cl)cc1)CN(C)[C@@]21C(=O)N(C)c2ccccc21` as the molecule, how does the growth at 10 µM read?
A: Its growth at 10 µM is 65.2%.

The molecules below were run on U-251 (assay: Antitumor activity against human U251 cells assessed as cell growth at 10 uM after 48 hrs by sulforhodamine B assay). Conditions: U-251, 48 h, read-out: Activity.
Type: functional

Q: `CN1C/C(=C\c2ccc(Cl)cc2)C(=O)[C@]2(C1)[C@@H](c1ccc(Cl)cc1)CN(C)[C@@]21C(=O)N(C)c2ccccc21` was tested. Which growth at 10 µM did it give?
A: The growth at 10 µM was 68.6%.

Each molecule was assayed on Rattus norvegicus (assay: Antiinflammatory activity in Wister albino rat assessed as inhibition of carrageenan-induced paw oedema at 50 mg/kg, ip administered 1 hr before carrageenan challenge measured after 4 hrs of induction of inflammation relative to control). Conditions: route intraperitoneal.
Type: functional

Q: Which inhibition in vivo at 50 mg/kg does the source give for `CN1C/C(=C\c2ccc(Cl)cc2)C(=O)[C@]2(C1)[C@@H](c1ccc(Cl)cc1)CN(C)[C@@]21C(=O)N(C)c2ccccc21` here?
A: Its inhibition in vivo at 50 mg/kg is 45.7%.

Each molecule was assayed on Rattus norvegicus (assay: Antiinflammatory activity in Wister albino rat assessed as inhibition of carrageenan-induced paw oedema at 50 mg/kg, ip administered 1 hr before carrageenan challenge measured after 4 hrs of induction of inflammation relative to indomethacin). Conditions: route intraperitoneal.
Type: functional

Q: Which inhibition in vivo at 50 mg/kg does the source give for `CN1C/C(=C\c2ccc(Cl)cc2)C(=O)[C@]2(C1)[C@@H](c1ccc(Cl)cc1)CN(C)[C@@]21C(=O)N(C)c2ccccc21` here?
A: Its inhibition in vivo at 50 mg/kg is 80.9%.
